Format in all cases: in vivo
Assay [1] in a line: Sweetness intensity in 300 ppm Reb.A in water, four trained experts (Example 10). The protocol: Example 10: Six samples were prepared and compared with 300 ppm Reb.A in water; 100% sweetness level (in red, FIG. 10). The first sample comprised 300 ppm Reb. A with 10 ppm Naringenin. The second sample was a 300 ppm Reb.A with 25 ppm Naringenin. The third sample was a 300 ppm Reb.A with 50 ppm Naringenin. The fourth sample comprised 300 ppm Reb.A with 75 ppm Naringenin. The fifth sample was a 300 ppm Reb.A with 100 ppm Naringenin. The sixth sample was a 300 ppm Reb.A with 150 ppm Naringenin. All samples were tested for sweetness intensity at room Temperature by four experts especially trained to evaluate sweet products. […] On the other hand, the addition of 100 and 150 ppm Naringenin to 300 ppm Reb.A solution has a small loss of sweetness (8%).

Assay [2] is described as follows: Sweetness intensity in 150 ppm Reb.A in water, four trained experts (Example 9). The protocol: Example 9: Three samples were prepared and compared with 150 ppm Reb.A (PureCircle) in water; equisweet to 3.5% sucrose (in red, FIG. 9). The first sample comprised 150 ppm Reb.A with 10 ppm Naringenin. The second sample was a 150 ppm Reb.A with 25 ppm Naringenin. The third sample comprised 150 ppm Reb.A with 50 ppm Naringenin. All samples were tested for sweetness intensity at room Temperature by four experts especially trained to evaluate sweet products.

Assay [3] can be described thus: Sweetness intensity in sucrose solution, thirty participants (Example 2). As to conditions: 125 ppm Naringenin in 5% sucrose solution in water. The protocol:
Example 2. Two samples were prepared. The first sample was a 6% sucrose solution in water. The second sample was a 5% sucrose solution in water with 125 ppm Naringenin. The samples were tested for sweetness intensity by thirty participants.

Assay [4] can be described thus: Tasting of Naringenin alone and combined with sweeteners (summary statements). The following applies: combined with other sweeteners, some embodiments. As to the method: However, when combined with others sweeteners, Naringenin provides sweetness enhancement to composition comprising a sweetener. In some embodiments, Naringenin provides a sweetness equivalent to 1-2° brix of sucrose equivalents.

For the molecule `O=C1C[C@@H](c2ccc(O)cc2)Oc2cc(O)cc(O)c21` [Naringenin, 2,3-Dihydro-5,7-dihydroxy-2(-4-hydroxyphenyl)-4H-1-bcmzopyran-4-one], in assay [1] (10 to 75 ppm Naringenin in 300 ppm Reb.A solution), the “equisweet Reb.A level in water” value is reported as 350 ppm Reb.A. Also, in assay [1] (10 to 75 ppm Naringenin in 300 ppm Reb.A solution, 300 ppm Reb.A = 100%), the sweetness enhancement effect was found to be 17%. The molecule further returned a loss of sweetness in assay [1] (100 and 150 ppm Naringenin in 300 ppm Reb.A solution, 300 ppm Reb.A = 100%) of 8%. The “sweetness intensity reached, as sucrose level” value in assay [2] (50 ppm Naringenin in 150 ppm Reb.A solution, room temperature) stood at 4 % sucrose. The “sweetness level reached, as sucrose solution without Naringenin” value in assay [3] was roughly 6 % sucrose. Further, the “sweetness provided, sucrose equivalents” value in assay [4] is 1-2 ° brix of sucrose equivalents.
`C=C1C[C@@]23CC[C@H]4[C@@](C)(CCC[C@@]4(C)C(=O)O[C@@H]4O[C@H](CO)[C@@H](O)[C@H](O)[C@H]4O)[C@@H]2CC[C@]1(O[C@@H]1O[C@H](CO)[C@@H](O)[C@H](O[C@@H]2O[C@H](CO)[C@@H](O)[C@H](O)[C@H]2O)[C@H]1O[C@@H]1O[C@H](CO)[C@@H](O)[C@H](O)[C@H]1O)C3` [Reb.A, rebaudioside A, reference compound]: in assay [2] (150 ppm Reb.A in water without Naringenin), the equisweet sucrose level came out at 3.5 % sucrose.

(Values after patent publication US20250008996A1, “Flavored Food and Beverage Products” (Firmenich SA, priority 2014, published 2025).)
